Source: US10730866B2, “Indole derivatives and use thereof” (Purdue Pharma L.P., priority 2014, dated 2020)

Legend:
hNav1.7 = hNav1.7 (Homo sapiens (Human), UniProt Q15858); assay: Electrophysiology (EP) assay, whole-cell patch clamp; type: cell-based; conditions: hNav1.7 expressing HEK-293 cells; affinity for inactivated state; read-out: Nav1.7 Activity (μM) EP assay Ki
Experimental: The hNav1.7 expressing HEK-293 cells are plated on 35 mm culture dishes pre-coated with poly-D-lysine in standard DMEM culture media (Mediatech, Inc., Herndon, Va.) and incubated in a 5% CO2 incubator at 37° C. Cultured cells are used approximately 12-48 hours after plating.
The hNav1.7 expressing HEK-293 cells are plated on tissue culture flasks in standard DMEM culture media (Mediatech, Inc.) and incubated in a 5% CO2 incubator at 37° C. Cultured cells are used approximately 12-48 hours after plating.
On the day of experimentation, the 35 mm dish is placed on the stage of an inverted microscope equipped with a perfusion system that continuously perfuses the culture dish with fresh recording media. A gravity driven superfusion system is used to apply test solutions directly to the cell under evaluation. This “shooter” system consists of an array of glass pipettes connected to a motorized horizontal translator. The outlet of the shooter is positioned approximately 100 μm from the cell of interest.
Whole cell currents are recorded using the whole-cell patch clamp configuration using an Axopatch 200B amplifier (Axon Instruments, Foster City Calif.), 1322A A/D converter (Axon Instruments) and pClamp software (v. 8; Axon Instruments) and stored on a personal computer. Gigaseals are formed and the whole-cell configuration is established in voltage clamp mode, and membrane currents generated by hNav1.7 channels are recorded. Borosilicate glass pipettes with resistance values between 1.5 and 2.0 MΩ when filled with pipette solution are used and series resistance (<5 MΩ) is compensated by 75-80%. Signals are sampled at 50 kHz and low pass filtered at 3 kHz.
Whole cell currents are recorded using the whole-cell patch clamp configuration using an Patchliner (Nanion Technologies, Munich Germany), EPC 10 quadro amplifiers (HEKA, Bellmore, N.Y.) and PatchControl HT 10905 (Nanion Technologies) and PatchMaster v2x73 software (HEKA) and stored on a personal computer. Gigaseals are formed and the whole-cell configuration is established in voltage clamp mode, and membrane currents generated by hNav1.7 are recorded. NPC-16 chips have resistance values between 1.0 and 2.0 MΩ when filled with pipette solution and series resistance (<5 MΩ). Signals are sampled at 25 kHz and low pass filtered at 3 kHz.
After establishing the whole-cell configuration in voltage clamp mode, voltage protocols are run to establish the 1) test potential (Vmax), 2) holding potential (Vh), and 3) the conditioning potential for each cell.
After establishing the whole-cell configuration in voltage clamp mode, a standard I-V protocol is run to determine the potential at which the maximal current (Imax) is elicited. This potential is the test potential (Vt). To determine a conditioning potential at which 100% of channels are in the inactivated state, a standard steady-state inactivation (SSIN) protocol is run using a series of fifteen 100 ms-long depolarizing prepulses, incrementing in 10 mV steps, immediately followed by a 5 ms testing pulse to Vmax. This protocol also permits determination of the holding potential at which all channels are in the resting state.
For compounds causing significant retardation of recovery from inactivation, an estimate of the affinity for the inactivated state of the channel (Ki) is generated using the following protocol. From the negative, no residual inactivation, holding potential, the cell is depolarized to the conditioning voltage for 2-5 seconds, returned to the negative holding potential for 10-20 ms to relieve fast inactivation and then depolarized to the test potential for ˜15 ms. This voltage protocol is repeated every 10-15 seconds, first to establish a baseline in the absence of the test compound, then in the presence of the test compound.
After a stable baseline is established, the test compound is applied and block of the current elicited by the test pulse assessed. […]

human Nav1.7 = human Nav1.7 (Homo sapiens (Human), UniProt Q15858); assay: FLIPR or FLIPR TETRA sodium dye assay for sodium channel blocking activity; type: cell-based; conditions: recombinant HEK293 cells expressing human Nav1.7
Experimental: In vitro assays were performed in a recombinant cell line expressing cDNA encoding the alpha subunit (Nav1.7, SCN9a, PN1, NE) of human Nav1.7 (Accession No. NM_002977). The cell line was provided by investigators at Yale University (Cummins et al, J. Neurosci. 18(23): 9607-9619 (1998)). For dominant selection of the Nav1.7-expressing clones, the expression plasmid co-expressed the neomycin resistance gene. The cell line was constructed in the human embryonic kidney cell line, HEK293, under the influence of the CMV […] promoter, and stable clones were selected using limiting dilution cloning and antibiotic selection using the neomycin analogue, G418. Recombinant beta and gamma subunits were not introduced into this cell line. Additional cell lines expressing recombinant Nav1.7 cloned from other species can also be used, alone or in combination with various beta subunits, gamma subunits or chaperones.
Unless otherwise noted, cell culture reagents were purchased from Mediatech of Herndon, Va. The recombinant Nav1.7/HEK293 cells were routinely cultured in growth medium consisting of Dulbecco's […] essential medium containing 10% fetal bovine serum (FBS, Hyclone, Thermo Fisher Scientific, Logan, Utah), 100 U/mL penicillin, 100 μg/mL streptomycin, 2-4 mM L-glutamine, and […] G418. For natural, non-recombinant cell lines, the selective antibiotic was omitted, and additional media formulations can be applied as needed.
The final buffer consisted of 20 mM Hepes, pH 7.3, 1.261 mM CaCl2, 0.493 mM MgCl2, 0.407 mM Mg(SO)4, 5.33 mM KCl, 0.441 mM KH2PO4, 137 mM NaCl, 0.336 mM Na2HPO4 and […] D-glucose (Hanks et al., Proc. Soc. Exp. Biol. Med. 71:196 (1949)), and the simple formulation was typically the basic buffer throughout the assay (i.e., all wash and addition steps).
The fluorescence indicator used in the primary fluorescence assay was the cell permeant version of CoroNa™ Green (Invitrogen, Molecular Probes, Eugene, Oreg.), a dye that emits light in the fluorescence range (Harootunian et al., J. Biol. Chem. 264(32):19458-19467 (1989)). The intensity of this emission, but not the wavelength range, is increased when the dye is exposed to Na^+ ions, which it can bind with partial selectivity. Cells expressing Nav1.7 or other sodium channels were loaded with the CoroNa™ Green dye immediately in advance of the fluorescence assay, and then, after agonist stimulation, the mobilization of Na^+ ions was detected as the Na^+ ions flowed from the extracellular fluid into the cytoplasm through the activated sodium channel pores. The dye was stored in the dark as a lyophilized powder, and then an aliquot was dissolved immediately before the cell loading procedure, according to the instructions of the manufacturer, to a stock concentration of 10 mM in DMSO. It was then diluted in the assay buffer to a 4× concentrated working solution, so that the final concentration of dye in the cell loading buffer was 5 μM.
In the fluorescence assays, two agonists were used in combination, namely 1) veratridine; and 2) the venom from the yellow scorpion, Leiurus quinquestriatus hebraeus. Veratridine is an alkaloid small molecule that facilitates the capture of channel openings by inhibiting inactivation, and the scorpion venom is a natural preparation that includes peptide toxins selective for different subsets of voltage-gated sodium channels. These scorpion toxins inhibit the fast inactivation of their cognate target channels. Stock solutions of the agonists were prepared to 40 mM in DMSO (veratridine) and 1 mg/mL in dH2O (scorpion venom), and then diluted to make a 4× or 2× stock (depending on the particular assay) in assay buffer, the final concentration being 100 μM (veratridine) and 10 μg/mL (scorpion venom). Both of the agonists were purchased from Sigma Aldrich, St. Louis, Mo.
Test compounds were dissolved in DMSO to yield 10 mM stock solutions. […]

human Nav1.7, sequence (Q15858 other isoform, or with tags, fused parts or gaps): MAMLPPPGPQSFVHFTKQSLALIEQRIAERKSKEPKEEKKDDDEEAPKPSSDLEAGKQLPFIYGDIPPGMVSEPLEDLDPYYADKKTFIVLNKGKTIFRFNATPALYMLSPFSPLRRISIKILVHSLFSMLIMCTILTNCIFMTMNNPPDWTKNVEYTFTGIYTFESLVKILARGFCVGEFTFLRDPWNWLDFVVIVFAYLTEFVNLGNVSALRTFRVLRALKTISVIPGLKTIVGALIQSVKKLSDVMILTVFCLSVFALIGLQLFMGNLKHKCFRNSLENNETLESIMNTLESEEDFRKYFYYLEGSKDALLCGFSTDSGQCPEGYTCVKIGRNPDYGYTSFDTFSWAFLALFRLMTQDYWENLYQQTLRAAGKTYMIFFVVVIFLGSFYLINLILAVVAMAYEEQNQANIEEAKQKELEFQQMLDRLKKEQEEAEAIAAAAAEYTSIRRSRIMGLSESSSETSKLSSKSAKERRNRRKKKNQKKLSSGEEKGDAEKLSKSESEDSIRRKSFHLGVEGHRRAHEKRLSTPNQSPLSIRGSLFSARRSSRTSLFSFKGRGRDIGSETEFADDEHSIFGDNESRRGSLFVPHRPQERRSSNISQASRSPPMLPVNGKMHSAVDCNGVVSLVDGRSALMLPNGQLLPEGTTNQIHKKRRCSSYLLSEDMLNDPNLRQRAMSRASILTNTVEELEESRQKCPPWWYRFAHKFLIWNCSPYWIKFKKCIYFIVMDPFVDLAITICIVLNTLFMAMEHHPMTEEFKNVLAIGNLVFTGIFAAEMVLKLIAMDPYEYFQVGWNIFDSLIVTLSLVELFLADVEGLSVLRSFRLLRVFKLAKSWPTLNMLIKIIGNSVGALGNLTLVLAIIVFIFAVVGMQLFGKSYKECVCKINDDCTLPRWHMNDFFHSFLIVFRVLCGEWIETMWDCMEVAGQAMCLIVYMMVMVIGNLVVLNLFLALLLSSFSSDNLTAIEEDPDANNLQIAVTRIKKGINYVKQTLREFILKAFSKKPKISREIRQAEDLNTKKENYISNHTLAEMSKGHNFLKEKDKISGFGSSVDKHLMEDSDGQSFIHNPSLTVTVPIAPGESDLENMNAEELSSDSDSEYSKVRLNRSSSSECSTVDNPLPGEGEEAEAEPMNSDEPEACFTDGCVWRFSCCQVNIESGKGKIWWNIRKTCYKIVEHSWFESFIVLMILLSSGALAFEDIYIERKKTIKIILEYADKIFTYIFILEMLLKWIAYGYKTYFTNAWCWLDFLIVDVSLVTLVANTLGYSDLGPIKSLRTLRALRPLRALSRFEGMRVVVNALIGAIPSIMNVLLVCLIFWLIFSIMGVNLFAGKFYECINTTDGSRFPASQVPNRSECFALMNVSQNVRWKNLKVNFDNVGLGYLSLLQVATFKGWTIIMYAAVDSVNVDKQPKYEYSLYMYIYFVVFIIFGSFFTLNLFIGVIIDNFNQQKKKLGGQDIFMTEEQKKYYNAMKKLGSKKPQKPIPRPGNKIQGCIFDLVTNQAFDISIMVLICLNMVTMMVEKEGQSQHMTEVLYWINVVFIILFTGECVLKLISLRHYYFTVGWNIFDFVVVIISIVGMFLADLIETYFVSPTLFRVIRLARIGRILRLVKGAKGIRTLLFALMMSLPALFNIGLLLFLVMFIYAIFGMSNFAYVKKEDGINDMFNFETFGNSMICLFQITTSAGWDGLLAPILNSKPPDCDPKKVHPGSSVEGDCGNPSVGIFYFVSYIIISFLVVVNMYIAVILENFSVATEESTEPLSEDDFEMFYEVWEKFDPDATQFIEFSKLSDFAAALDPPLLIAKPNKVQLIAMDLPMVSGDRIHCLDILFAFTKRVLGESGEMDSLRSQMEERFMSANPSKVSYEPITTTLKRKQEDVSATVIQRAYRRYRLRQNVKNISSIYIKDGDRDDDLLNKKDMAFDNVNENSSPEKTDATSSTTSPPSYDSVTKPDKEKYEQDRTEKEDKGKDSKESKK
hNav1.7, sequence (Q15858 other isoform, or with tags, fused parts or gaps): as above

| SMILES | Ki (hNav1.7) | IC50 (human Nav1.7) |
| --- | --- | --- |
| CC(C)Cn1ccc2cc(-c3cccc(S(=O)(=O)Nc4ncns4)n3)ccc21 [Compound 41, 6-(1-isobutyl-1H-indol-5-yl)-N-(1,2,4-thiadiazol-5-yl)pyridine-2-sulfonamide] | 0.322 ± 0.113 µM | 0.514 ± 0.054 µM |
| NC(=O)c1cc(N[C@H]2CCNC2=O)nc(-c2ccc3ncn(-c4ccc(C(F)(F)F)cc4)c3c2)n1 [Compound 44, (S)-6-((2-oxopyrrolidin-3-yl)amino)-2-(1-(4-(trifluoromethyl)phenyl)-1H-benzo[d]imidazol-6-yl)pyrimidine-4-carboxamide] | 1.54 ± 0.446 µM | 1.72 ± 0.156 µM |
| O=C(Nc1ccc(C(F)(F)F)cc1)c1cc(N[C@H]2CCNC2=O)nc(-c2ccc3[nH]ccc3c2)n1 [Compound 78, (S)-2-(1H-indol-5-yl)-6-((2-oxopyrrolidin-3-yl)amino)-N-(4-(trifluoromethyl)phenyl)pyrimidine-4-carboxamide] | 1.28 ± 0.48 µM | 1.83 ± 0.459 µM |
| NC(=O)c1cccc(-c2ccc3c(cnn3Cc3ccc(C(F)(F)F)cc3)c2)n1 [Compound 105, 6-(1-(4-(trifluoromethyl)benzyl)-1H-indazol-5-yl)picolinamide] | 0.7 ± 0.049 µM | 0.897 ± 0.114 µM |
| OC[C@@H](O)c1cccc(-c2cnc3c(ccn3Cc3ccc(C(F)(F)F)cc3)c2)n1 [Compound 106, (S)-1-(6-(1-(4-(trifluoromethyl)benzyl)-1H-pyrrolo[2,3-b]pyridin-5-yl)pyridin-2-yl)ethane-1,2-diol] | 0.286 ± 0.027 µM | 1.33 ± 0.164 µM |
| OC[C@@H](O)c1cccc(-c2ccc3c(cnn3Cc3ccc(C(F)(F)F)cc3)c2)n1 [Compound 107, (S)-1-(6-(1-(4-(trifluoromethyl)benzyl)-1H-indazol-5-yl)pyridin-2-yl)ethane-1,2-diol] | 0.534 ± 0.032 µM | 1.09 ± 0.077 µM |
| NC(=O)c1cc([C@@H](O)CO)cc(-c2ccc3c(ccn3Cc3ccc(C(F)(F)F)cc3)c2)n1 [Compound 120, (R)-4-(1,2-dihydroxyethyl)-6-(1-(4-(trifluoromethyl)benzyl)-1H-indol-5-yl)picolinamide] | 2.03 ± 0.608 µM | 1.91 ± 0.458 µM |
| NC(=O)c1cc(-c2ccc3c(ccn3Cc3ccc(C(F)(F)F)cc3)c2)cc([C@H](O)CO)n1 [Compound 123, (S)-6-(1,2-dihydroxyethyl)-4-(1-(4-(trifluoromethyl)benzyl)-1H-indol-5-yl)picolinamide] | 1.02 ± 0.368 µM | 1.52 ± 0.152 µM |
| CC(C)Cn1ccc2cc(-c3cccc([C@H](O)[C@@H](O)C(N)=O)n3)ccc21 [Compound 150, (2R,3S)-2,3-dihydroxy-3-(6-(1-isobutyl-1H-indol-5-yl)pyridin-2-yl)propanamide] | 0.678 ± 0.172 µM | 1.38 ± 0.146 µM |
| NC(=O)[C@H](O)[C@@H](O)c1cccc(-c2ccc3c(ccn3CC3CC3)c2)n1 [Compound 154, (2R,3S)-3-(6-(1-(cyclopropylmethyl)-1H-indol-5-yl)pyridin-2-yl)-2,3-dihydroxypropanamide] | 27.2 ± 8.2 µM | 10 to 20 µM |
| CC(C)Cn1ncc2cc(-c3cccc([C@H](O)[C@@H](O)C(N)=O)n3)ccc21 [Compound 155, (2R,3S)-2,3-dihydroxy-3-(6-(1-isobutyl-1H-indazol-5-yl)pyridin-2-yl)propanamide] | 10.6 ± 3.9 µM | > 20 µM |
| NC(=O)c1csc(-c2ccc3c(ccn3Cc3ccc(C(F)(F)F)cc3)c2)n1 [Compound 156, 2-(1-(4-(trifluoromethyl)benzyl)-1H-indol-5-yl)thiazole-4-carboxamide] | – | 0.173 ± 0.018 µM |
